According to patent US10464911B2, “1,3,4-oxadiazole sulfamide derivative compounds as histone deacetylase 6 inhibitor, and the pharmaceutical composition comprising the same” (Chong Kun Dang Pharmaceutical Corp., priority 2015, dated 2019):

Biological target: human recombinant HDAC6 (Homo sapiens (Human), UniProt Q9UBN7)
Assay: HDAC6 enzyme activity inhibition assay (HDAC Fluorimetric Drug Discovery Kit)
Format: biochemical
Conditions: for HDAC6 selectivity (fold): HDAC6 versus HDAC1; for IC50: human recombinant HDAC6, same protocol as HDAC1 test
Procedure: In order to examine the HDAC6 selectivity of the compounds of formula I of the present invention by HDAC1 and HDAC6 enzymatic activity inhibition assays, an experiment was performed using a conventional substance as a control.
HDAC enzyme activity was measured using a HDAC Fluorimetric Drug Discovery Kit (BML-AK511, 516, Enzo Life Science). For the HDAC1 enzyme activity test, human recombinant HDAC1 (BML-SE456) was used as an enzyme source, and Fluor de Lys®-“SIRT1 (BNL-KI177) was used as a substrate. A 5-fold dilution of the compound was seeded into a 96-well plate, and then 0.3 μg of the enzyme and 10 μM of the substrate were added to each well of the plate and allowed to react at 30 for 60 minutes. Then, Fluor de Lys®-Developer II (BML-KI176) was added thereto and allowed to react for 30 minutes, after which the fluorescence value (Ex 360, Em 460) was measured using a multi-plate reader (Flexstation 3, Molecular Device). The HDAC6 enzyme was tested using human recombinant HDAC6 (382180) (Calbiochem) according to the same protocol as the HDAC1 enzyme activity test method. Based on the resulting values, each IC50 value was calculated using GraphPad Prism4.0 program.

Sequence of human recombinant HDAC6 (Q9UBN7 whole entry): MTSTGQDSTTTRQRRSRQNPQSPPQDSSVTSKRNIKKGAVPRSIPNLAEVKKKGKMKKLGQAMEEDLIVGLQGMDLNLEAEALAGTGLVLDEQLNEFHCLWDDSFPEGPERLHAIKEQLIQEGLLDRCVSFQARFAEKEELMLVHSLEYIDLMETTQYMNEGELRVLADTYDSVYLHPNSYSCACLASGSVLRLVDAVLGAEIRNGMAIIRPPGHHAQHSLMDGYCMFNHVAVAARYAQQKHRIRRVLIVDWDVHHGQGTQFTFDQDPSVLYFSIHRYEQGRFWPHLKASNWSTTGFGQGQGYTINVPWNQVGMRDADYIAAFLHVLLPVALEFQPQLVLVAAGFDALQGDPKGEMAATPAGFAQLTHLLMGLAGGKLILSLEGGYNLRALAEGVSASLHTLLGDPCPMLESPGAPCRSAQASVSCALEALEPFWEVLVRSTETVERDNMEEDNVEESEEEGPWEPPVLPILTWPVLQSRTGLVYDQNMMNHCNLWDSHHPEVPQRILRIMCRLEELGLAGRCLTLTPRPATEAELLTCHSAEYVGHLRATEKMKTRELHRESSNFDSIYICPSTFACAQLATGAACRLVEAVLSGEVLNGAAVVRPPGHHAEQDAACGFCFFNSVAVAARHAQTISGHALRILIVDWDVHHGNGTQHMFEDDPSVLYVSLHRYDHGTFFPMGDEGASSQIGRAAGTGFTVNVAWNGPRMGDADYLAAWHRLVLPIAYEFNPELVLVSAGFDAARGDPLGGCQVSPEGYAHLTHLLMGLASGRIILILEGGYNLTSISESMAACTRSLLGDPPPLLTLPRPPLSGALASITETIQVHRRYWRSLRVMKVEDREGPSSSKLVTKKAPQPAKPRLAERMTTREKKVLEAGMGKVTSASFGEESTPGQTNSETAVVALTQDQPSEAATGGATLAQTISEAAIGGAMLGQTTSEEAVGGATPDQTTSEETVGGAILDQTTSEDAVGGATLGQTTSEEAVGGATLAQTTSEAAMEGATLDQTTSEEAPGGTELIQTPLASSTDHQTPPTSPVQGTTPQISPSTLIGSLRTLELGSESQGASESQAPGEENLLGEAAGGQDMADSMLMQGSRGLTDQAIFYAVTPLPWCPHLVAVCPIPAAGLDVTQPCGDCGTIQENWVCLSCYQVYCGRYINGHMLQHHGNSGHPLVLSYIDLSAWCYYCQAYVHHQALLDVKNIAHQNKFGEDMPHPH

Row | Compound | HDAC6 selectivity (fold) | IC50 [nM]
1 | O=S(=O)(N1CCN(C2COC2)CC1)N(Cc1ccc(-c2nnc(C(F)F)o2)cn1)c1ccccc1 [Compound 11574, N-((5-(5-(difluoromethyl)-1,3,4-oxadiazol-2-yl)pyridin-2-yl)methyl)-4-(oxetan-3-yl)-N-phenylpiperazine-1-sulfonamide] | 6250 | 16
2 | CN1CCN(S(=O)(=O)N(Cc2ccc(-c3nnc(C(F)F)o3)cc2F)c2ccccc2)CC1 [Compound 11306, N-(4-(5-(difluoromethyl)-1,3,4-oxadiazol-2-yl)-2-fluorobenzyl)-4-methyl-N-phenylpiperazine-1-sulfonamide] | 4363 | 23
3 | CS(=O)(=O)N1CCN(S(=O)(=O)N(Cc2ccc(-c3nnc(C(F)F)o3)cc2F)c2ccccc2)CC1 [Compound 11305, N-(4-(5-(difluoromethyl)-1,3,4-oxadiazol-2-yl)-2-fluorobenzyl)-4-(methylsulfonyl)-N-phenylpiperazine-1-sulfonamide] | 2620 | 38
4 | CN1CCN(S(=O)(=O)N(Cc2ccc(-c3nnc(C(F)F)o3)cc2F)c2cccnc2)CC1 [Compound 11320, N-(4-(5-(difluoromethyl)-1,3,4-oxadiazol-2-yl)-2-fluorobenzyl)-4-methyl-N-(pyridin-3-yl)piperazine-1-sulfonamide] | 1829 | 55
5 | O=S(=O)(N1CCC2(CC1)CN(C1COC1)C2)N(Cc1ccc(-c2nnc(C(F)F)o2)cc1)c1ccccc1 [Compound 11788, N-(4-(5-(difluoromethyl)-1,3,4-oxadiazol-2-yl)benzyl)-2-(oxetan-3-yl)-N-phenyl-2,7-diazaspiro[3.5]nonane-7-sulfonamide] | 561 | 178
6 | O=S(=O)(N1CCN(C2CCC2)CC1)N(Cc1ccc(-c2nnc(C(F)F)o2)cn1)c1ccc(F)c(Cl)c1 [Compound 11671, N-(3-chloro-4-fluorophenyl)-4-cyclobutyl-N-((5-(5-(difluoromethyl)-1,3,4-oxadiazol-2-yl)pyridin-2-yl)methyl)piperazine-1-sulfonamide] | 3703 | 27
7 | Cc1cccc(N(Cc2ccc(-c3nnc(C(F)F)o3)cn2)S(=O)(=O)N2CCN(C3COC3)CC2)c1 [Compound 11833, N-((5-(5-(difluoromethyl)-1,3,4-oxadiazol-2-yl)pyridin-2-yl)methyl)-4-(oxetan-3-yl)-N-(m-tolyl)piperazine-1-sulfonamide] | 2040 | 49
8 | Cc1cccc(N(Cc2ccc(-c3nnc(C(F)F)o3)cn2)S(=O)(=O)N2CCN(C)[C@H](C)C2)c1 [Compound 11823, (R)—N-((5-(5-(difluoromethyl)-1,3,4-oxadiazol-2-yl)pyridin-2-yl)methyl)-3,4-dimethyl-N-(m-tolyl)piperazine-1-sulfonamide] | 2083 | 48
9 | CS(=O)(=O)N1CCN(S(=O)(=O)N(Cc2ccc(-c3nnc(C(F)F)o3)cc2F)c2cccnc2)CC1 [Compound 11319, N-(4-(5-(difluoromethyl)-1,3,4-oxadiazol-2-yl)-2-fluorobenzyl)-4-(methylsulfonyl)-N-(pyridin-3-yl)piperazine-1-sulfonamide] | 1464 | 68
10 | O=S(=O)(N1CCOCC1)N(Cc1ccc(-c2nnc(C(F)F)o2)cc1)c1ccc(F)cc1 [Compound 11199, N-(4-(5-(difluoromethyl)-1,3,4-oxadiazol-2-yl)benzyl)-N-(4-fluorophenyl)morpholine-4-sulfonamide] | 1911 | 52
11 | C[C@@H]1CN(S(=O)(=O)N(Cc2ccc(-c3nnc(C(F)F)o3)cc2)c2ccccc2)C[C@H](C)N1C [Compound 11643, (3S,5R)—N-(4-(5-(difluoromethyl)-1,3,4-oxadiazol-2-yl)benzyl)-3,4,5-trimethyl-N-phenylpiperazine-1-sulfonamide] | 1443 | 69
12 | CC(=O)N1CCN(CCN(C)S(=O)(=O)N(Cc2ccc(-c3nnc(C(F)F)o3)cc2)c2ccccc2)CC1 [Compound 11713, 2-((4-(((N-methyl-N-(2-(4-acetylpiperazin-1-yl)ethyl)sulfamoyl)(phenyl)amino)methyl))phenyl)-5-(difluoromethyl)-1,3,4-oxadiazole] | 142 | 705
13 | O=S1(=O)CCN(S(=O)(=O)N(Cc2ccc(-c3nnc(C(F)F)o3)cn2)c2ccccc2)CC1 [Compound 11440, N-((5-(5-(difluoromethyl)-1,3,4-oxadiazol-2-yl)pyridin-2-yl)methyl)-N-phenylthiomorpholine-4-sulfonamide 1,1-dioxide] | 5000 | 20
14 | CC(=O)N1CCN(S(=O)(=O)N(Cc2ccc(-c3nnc(C(F)(F)F)o3)cc2F)c2cccc(F)c2)CC1 [Compound 11311, 4-acetyl-N-(2-fluoro-4-(5-(trifluoromethyl)-1,3,4-oxadiazol-2-yl)benzyl)-N-(3-fluorophenyl)piperazine-1-sulfonamide] | 1188 | 84
15 | CC(C)N1CCN(S(=O)(=O)N(Cc2ccc(-c3nnc(C(F)F)o3)cn2)c2ccc(F)c(Cl)c2)CC1 [Compound 11670, N-(3-chloro-4-fluorophenyl)-N-((5-(5-(difluoromethyl)-1,3,4-oxadiazol-2-yl)pyridin-2-yl)methyl)-4-isopropylpiperazine-1-sulfonamide] | 4761 | 21
16 | O=S(=O)(N1CCN(C2CCC2)CC1)N(Cc1ccc(-c2nnc(C(F)F)o2)cn1)c1cccc(Cl)c1 [Compound 11831, N-(3-chlorophenyl)-4-cyclobutyl-N-((5-(5-(difluoromethyl)-1,3,4-oxadiazol-2-yl)pyridin-2-yl)methyl)piperazine-1-sulfonamide] | 2777 | 36
17 | Cc1cccc(N(Cc2ccc(-c3nnc(C(F)F)o3)cn2)S(=O)(=O)N2CCN(C3COC3)[C@@H](C)C2)c1 [Compound 11828, (S)—N-((5-(5-(difluoromethyl)-1,3,4-oxadiazol-2-yl)pyridin-2-yl)methyl)-3-methyl-4-(oxetan-3-yl)-N-(m-tolyl)piperazine-1-sulfonamide] | 2380 | 42
18 | CC(C)C(=O)N1CCN(S(=O)(=O)N(Cc2ccc(-c3nnc(C(F)F)o3)cc2F)c2ccccc2)CC1 [Compound 11304, N-(4-(5-(difluoromethyl)-1,3,4-oxadiazol-2-yl)-2-fluorobenzyl)-4-isobutyryl-N-phenylpiperazine-1-sulfonamide] | 1912 | 52
19 | CS(=O)(=O)N1CCN(S(=O)(=O)N(Cc2ccc(-c3nnc(C(F)(F)F)o3)cc2F)c2ccccc2)CC1 [Compound 11297, N-(2-fluoro-4-(5-(trifluoromethyl)-1,3,4-oxadiazol-2-yl)benzyl)-4-(methylsulfonyl)-N-phenylpiperazine-1-sulfonamide] | 805 | 124
20 | O=S(=O)(N1CCN(C2COC2)CC1)N(Cc1ccc(-c2nnc(C(F)F)o2)cc1F)c1ccccc1 [Compound 11379, N-(4-(5-(difluoromethyl)-1,3,4-oxadiazol-2-yl)-2-fluorobenzyl)-4-(oxetan-3-yl)-N-phenylpiperazine-1-sulfonamide] | 3846 | 26
